The values below are quoted from earlier work in US20220184030A1, “N-Phenylacetyl-L-prolylglycine ethyl ester compositions and methods for using the same” (priority 2020, published 2022).

Test in series [1]: not given
The source holds these as a separate data set.

The conditions of series [2]: users.

Molecules are shown by their SMILES. Where two headings read alike, the source gives them in different places. Residues, ends and D or L forms follow the SMILES beside them. *: point of attachment. PhAc = O=C(Cc1ccccc1)*

As to `CCOC(=O)CNC(=O)[C@@H]1CCCN1C(=O)Cc1ccccc1` [noopept, N-Phenylacetyl-L-prolylglycine ethyl ester] (PhAc-Pro-Gly-OEt), the “effective dose relative to the effective dose of piracetam” value (versus piracetam) is recorded as “over 50 times smaller in mass”. The “effective dose compared with racetams (in words)” value (versus some racetams, such as piracetam) is “smaller effective dose than some racetams”. Further, in series [1] (healthy human subjects, compared with piracetam), the side effects entry is “fewer side effects”. In series [2], the “tolerance or addiction to the compound” value is reported as “neither noopept nor CBD has been shown to cause the user to become tolerant or addicted” and the “tolerance to the nootropic effects” value was “generally do not develop a tolerance”.
`C=C(C)[C@@H]1CCC(C)=C[C@H]1c1c(O)cc(CCCCC)cc1O` [CBD, cannabidiol]: the side effects result in series [1] (humans who consume effective doses) was “generally does not cause significant side effects”. In addition, in series [2], the “tolerance or addiction to the compound” value was “neither noopept nor CBD has been shown to cause the user to become tolerant or addicted” and the “tolerance to the nootropic effects” value was “generally do not develop a tolerance”.
